Patent US9012470B2 (Dart NeuroScience (Cayman) Ltd., priority 2010, dated 2015)

Tested on: benzodiazepine site of GABAA
Experiment: Binding assay, benzodiazepine site of GABAA (binding assay 1: rat brain, (3H)-flunitrazepam; binding assay 2: bovine hippocampal membranes, [3H]-RY80)
Conditions: radioligand binding; for % Inhibition at 10 μM: 10 μM test compound; for % Inhibition at 0.1 μM: 0.1 μM test compound
Protocol: The ability of a compound disclosed herein to act as ligand to the benzodiazepine site of GABAA can be determined using pharmacological models which are well known in the art using the following assay.
Binding assay 1: Whole brain (except cerebellum) of male Wistar derived rats weighing 175±25 g were used to prepare GABAA central benzodiazepine receptor in Na—K phosphate buffer pH 7.4. A 5 mg aliquot was incubated with 1 nM (^3H)-flunitrazepam for 60 minutes at 25° C. Experiments were performed in the presence or absence of 30 μM of GABA. Non-specific binding was estimated in the presence of 10 μM of diazepam. Membranes were filtered and washed, the filters were then counted to determine (^3H)-flunitrazepam specifically bound. Test compounds were tested in duplicate according to the required concentrations (Damm, H. W., et al. (1978) Res. Comm. Chem. Pathol. Pharmacol. 22: 597-560 incorporated herein in its entirety; Speth, R. C., et al. (1979) Life Sci. 24: 351-357 incorporated herein in its entirety).
Receptor Source: Bovine hippocampal membranes
Radioligand: [3H]-RY80 (40-80 Ci/mmol)
Final ligand concentration—[0.8 nM]
Non-specific Determinant: L-655,708—[0.5 μM]
Binding assay 2 followed procedures based on Li and Szabo (Li M., Szabo A., Rosenberg H. Evaluation of native GABAA receptors containing an α5 subunit. Eur. J. Pharmacol. 413: 63-72 (2001)). Incubation Conditions: Reactions are carried out in 50 mM Tris-Citrate (pH 7.8) containing 200 mM NaCl at 0-4° C. for 60 minutes. The reaction is terminated by rapid vacuum filtration onto glass fiber filters. Radioactivity trapped onto the filters is determined and compared to control values in order to ascertain any interactions of test compound with the benzodiazepine (central) binding site.

Structure (SMILES)	% Inhibition at 10 μM	% Inhibition at 0.1 μM
CCNC(=O)n1ccc2c3nn(-c4ccc(Cl)cn4)c(=O)c-3c[nH]c21 [Compound 17f, 2-(5-Chloropyridin-2-yl)-N-ethyl-3-oxo-2,3-dihydropyrazolo[3,4-d]pyrrolo[2,3-b]pyridine-6(5H)-carboxamide]	B (B indicates % inhibition <80% and >20%)	–
CCNC(=S)n1ccc2c3nn(-c4ccccc4)c(=O)c-3c[nH]c21 [Compound 17e, N-ethyl-3-oxo-2-phenyl-2,3-dihydropyrazolo[3,4-d]pyrrolo[2,3-b]pyridine-6(5H)-carbothioamide]	B (B indicates % inhibition <80% and >20%)	–
CC(C)NC(=O)n1ncc2c3nn(-c4ccc(Cl)c(C(F)(F)F)c4)c(=O)c-3c[nH]c21 [Compound 6t, 2-(4-chloro-3-(trifluoromethyl)phenyl)-N-isopropyl-3-oxo-2,3-dihydrodipyrazolo[3,4-b:3′,4′-d]pyridine-6(5H)-carboxamide]	C (C indicates % inhibition <20%)	–
CC(C)NC(=O)n1ncc2c3nn(-c4ccc(Br)cc4)c(=O)c-3c[nH]c21 [Compound 6x, 2-(4-bromophenyl)-N-isopropyl-3-oxo-2,3-dihydrodipyrazolo[3,4-b:3′,4′-d]pyridine-6(5H)-carboxamide]	A (A indicates % inhibition >80%)	–
CCNC(=O)n1ncc2c3nn(-c4ccc(Cl)c(C(F)(F)F)c4)c(=O)c-3c[nH]c21 [Compound 6s, 2-(4-chloro-3-(trifluoromethyl)phenyl)-N-ethyl-3-oxo-2,3-dihydrodipyrazolo[3,4-b:3′,4′-d]pyridine-6(5H)-carboxamide]	B (B indicates % inhibition <80% and >20%)	–
CCCCNC(=O)n1ncc2c3nn(-c4cccc(C(F)(F)F)c4)c(=O)c-3c[nH]c21 [Compound 6aj, N-butyl-3-oxo-2-(3-(trifluoromethyl)phenyl)-2,3-dihydrodipyrazolo[3,4-b:3′,4′-d]pyridine-6(5H)-carboxamide]	B (B indicates % inhibition <80% and >20%)	C (C indicates % inhibition <20%)
CCCCNC(=O)n1ncc2c3nn(-c4cccc(Cl)c4)c(=O)c-3c[nH]c21 [Compound 6ac, N-butyl-2-(3-chlorophenyl)-3-oxo-2,3-dihydrodipyrazolo[3,4-b:3′,4′-d]pyridine-6(5H)-carboxamide]	A (A indicates % inhibition >80%)	–
CCNC(=O)n1ncc2c3nn(-c4ccccc4F)c(=O)c-3c[nH]c21	A (A indicates % inhibition >80%)	B (B indicates % inhibition <80% and >20%)
CNC(=O)n1ccc2c3nn(-c4ccccc4)c(=O)c-3c[nH]c21 [Compound 17a, N-Methyl-3-oxo-2-phenyl-2,3-dihydropyrazolo[3,4-d]pyrrolo[2,3-b]pyridine-6(5H)-carboxamide]	C (C indicates % inhibition <20%)	C (C indicates % inhibition <20%)
CC(C)NC(=O)n1ncc2c3nn(-c4ccccc4)c(=O)c-3c[nH]c21 [Compound 6a, N-isopropyl-3-oxo-2-phenyl-2,3-dihydrodipyrazolo[3,4-b:3′,4′-d]pyridine-6(5H)-carboxamide]	B (B indicates % inhibition <80% and >20%)	C (C indicates % inhibition <20%)
CC(C)CCNC(=O)n1ncc2c3nn(-c4ccccc4)c(=O)c-3c[nH]c21 [Compound 6g, N-isopentyl-3-oxo-2-phenyl-2,3-dihydrodipyrazolo[3,4-b:3′,4′-d]pyridine-6(5H)-carboxamide]	A (A indicates % inhibition >80%)	B (B indicates % inhibition <80% and >20%)
CNC(=O)n1ncc2c3nn(-c4ccc(C(F)(F)F)cc4)c(=O)c-3c[nH]c21 [Compound 6ag, N-methyl-3-oxo-2-(4-(trifluoromethyl)phenyl)-2,3-dihydrodipyrazolo[3,4-b:3′,4′-d]pyridine-6(5H)-carboxamide]	B (B indicates % inhibition <80% and >20%)	–
CCNC(=O)n1ccc2c3nn(-c4ccccc4)c(=O)c-3c[nH]c21 [Compound 17b, N-Ethyl-3-oxo-2-phenyl-2,3-dihydropyrazolo[3,4-d]pyrrolo[2,3-b]pyridine-6(5H)-carboxamide]	B (B indicates % inhibition <80% and >20%)	C (C indicates % inhibition <20%)
CC(C)NC(=O)n1ncc2c3nn(-c4ccsc4)c(=O)c-3c[nH]c21 [Compound 6v, N-isopropyl-3-oxo-2-(thiophen-3-yl)-2,3-dihydrodipyrazolo[3,4-b:3′,4′-d]pyridine-6(5H)-carboxamide]	B (B indicates % inhibition <80% and >20%)	–
CC(C)NC(=O)n1ncc2c3nn(-c4ccc(Cl)cc4)c(=O)c-3c[nH]c21 [Compound 6p, 2-(4-chlorophenyl)-N-isopropyl-3-oxo-2,3-dihydrodipyrazolo[3,4-b:3′,4′-d]pyridine-6(5H)-carboxamide]	C (C indicates % inhibition <20%)	C (C indicates % inhibition <20%)
CNC(=O)n1ncc2c3nn(-c4ccc(Br)cc4)c(=O)c-3c[nH]c21 [Compound 6az, 2-(4-bromophenyl)-N-methyl-3-oxo-2,3-dihydrodipyrazolo[3,4-b:3′,4′-d]pyridine-6(5H)-carboxamide]	A (A indicates % inhibition >80%)	–
CC(C)CCNC(=O)n1ncc2c3nn(-c4ccc(F)cc4F)c(=O)c-3c[nH]c21 [Compound 6ap, 2-(2,4-difluorophenyl)-N-isopentyl-3-oxo-2,3-dihydrodipyrazolo[3,4-b:3′,4′-d]pyridine-6(5H)-carboxamide]	A (A indicates % inhibition >80%)	C (C indicates % inhibition <20%)
CC(C)NC(=O)n1ncc2c3nn(-c4ccc(C(F)(F)F)cc4)c(=O)c-3c[nH]c21 [Compound 6af, N-isopropyl-3-oxo-2-(4-(trifluoromethyl)phenyl)-2,3-dihydrodipyrazolo[3,4-b:3′,4′-d]pyridine-6(5H)-carboxamide]	B (B indicates % inhibition <80% and >20%)	–
O=C(Nc1ccccc1)n1cc2[nH]cc3c(=O)n(-c4ccccc4)nc-3c2c1 [Compound 13k, 3-Oxo-N,2-diphenyl-2,3-dihydropyrazolo[3,4-d]pyrrolo[3,4-b]pyridine-7(5H)-carboxamide]	A (A indicates % inhibition >80%)	B (B indicates % inhibition <80% and >20%)
CCCCNC(=O)n1ncc2c3nn(-c4ccc(Cl)cc4F)c(=O)c-3c[nH]c21 [Compound 6ak, N-butyl-2-(4-chloro-2-fluorophenyl)-3-oxo-2,3-dihydrodipyrazolo[3,4-b:3′,4′-d]pyridine-6(5H)-carboxamide]	A (A indicates % inhibition >80%)	C (C indicates % inhibition <20%)
CCNC(=O)n1cc2[nH]cc3c(=O)n(-c4ccc(Cl)cn4)nc-3c2c1 [Compound 13h, 2-(5-chloropyridin-2-yl)-N-ethyl-3-oxo-2,3-dihydropyrazolo[3,4-d]pyrrolo[3,4-b]pyridine-7(5H)-carboxamide]	A (A indicates % inhibition >80%)	A (A indicates % inhibition >80%)
CC(C)NC(=O)n1ncc2c3nn(-c4cc(C(F)(F)F)cc(C(F)(F)F)c4)c(=O)c-3c[nH]c21 [Compound 6r, 2-(3,5-bis(trifluoromethyl)phenyl)-N-isopropyl-3-oxo-2,3-dihydrodipyrazolo[3,4-b:3′,4′-d]pyridine-6(5H)-carboxamide]	B (B indicates % inhibition <80% and >20%)	–
CCCCNC(=O)n1ncc2c3nn(-c4ccc(F)cc4F)c(=O)c-3c[nH]c21 [Compound 6an, N-butyl-2-(2,4-difluorophenyl)-3-oxo-2,3-dihydrodipyrazolo[3,4-b:3′,4′-d]pyridine-6(5H)-carboxamide]	A (A indicates % inhibition >80%)	B (B indicates % inhibition <80% and >20%)
CCCCNC(=O)n1ncc2c3nn(-c4ccc(C(F)(F)F)cc4)c(=O)c-3c[nH]c21 [Compound 6ah, N-butyl-3-oxo-2-(4-(trifluoromethyl)phenyl)-2,3-dihydrodipyrazolo[3,4-b:3′,4′-d]pyridine-6(5H)-carboxamide]	B (B indicates % inhibition <80% and >20%)	–
CCNC(=S)n1ncc2c3nn(-c4ccc(Br)cc4)c(=O)c-3c[nH]c21 [Compound 6at, 2-(4-bromophenyl)-N-ethyl-3-oxo-2,3-dihydrodipyrazolo[3,4-b:3′,4′-d]pyridine-6(5H)-carbothioamide]	A (A indicates % inhibition >80%)	A (A indicates % inhibition >80%)
CC(C)NC(=O)n1ccc2c3nn(-c4ccccc4)c(=O)c-3c[nH]c21 [Compound 17c, N-Isopropyl-3-oxo-2-phenyl-2,3-dihydropyrazolo[3,4-d]pyrrolo[2,3-b]pyridine-6(5H)-carboxamide]	C (C indicates % inhibition <20%)	C (C indicates % inhibition <20%)
